In the test the target is T1, KRAS 4B G12C protein (Homo sapiens, UniProt P01116, G12C).
T1 construct: This protein contained 188 amino acids in total, including an N-terminal 6-Histidine tag; made in house; host or cells: E. coli BL21
Put plainly: In vitro covalent adduct formation (CAF) assay by LC-MS. The note with it: compound 10 μM, protein 5 μM, 22° C., percentage of protein bound by the compound. It is filed as binding. As to the method:
In vitro covalent adduct formation assay: Covalent adduct formation (CAF) reactions between Cys12 of the KRAS 4B G12C protein and some of the compounds of Table 1 were measured in vitro using liquid chromatography-mass spectrometry (LC-MS).
Recombinant Human KRAS 4B protein containing the G12C mutation was used in compound screening experiments. This protein contained 188 amino acids in total, including an N-terminal 6-Histidine tag, followed by a Tobacco Etch Virus (TEV) tag, followed by residues 1-169 of the native KRAS 4B sequence. The exact mass of the protein was 21,310 Da as determined by mass spectrometry. The full amino acid sequence is shown below:
The recombinant protein was expressed in E. coli BL21 cells and purified using affinity chromatography via a Ni-NTA column. […] Pure KRAS 4B G12C protein was diluted to a concentration of 5 μM in Tris Buffered Saline, pH 7.4. The compounds were dissolved in DMSO and added to the diluted protein to make a 10 μM concentration. The total DMSO concentration in the reaction was 4%. The reaction was mixed by pipetting and incubated at 22° C. for one hour. Aliquots of the reaction were taken over time and diluted 2:1 in 0.1% formic acid. The intact mass of the protein samples was measured by LC-MS using a QExactive+ mass spectrometer (Thermo Scientific). An amount of 500 ng total protein was injected onto a C8 reverse phase column, eluted with a seven-minute gradient of 30%-90% acetonitrile/0.1% formic acid, and analyzed for intact mass by the mass spectrometer. Adducts identified were confirmed to be within 1 Dalton of the expected mass, and the relative ratios of free:adduct protein were used to quantify the percentage of protein bound by the compound. CAF reactions were run in duplicate, with a typical variability of ±5%.

For `C=CC(=O)N1CCN(c2nc(OC[C@@H]3CCCN3C)nc3c2CN(Cc2c(Cl)cccc2OC(F)F)C3)C[C@@H]1C` [1-85], the “CAF (10 minutes/60 minutes) at 10 micromolar: 10 minutes” value (from here on “CAF … at 10 micromolar: 10 minutes”) is 0%/ 0% and the “CAF (10 minutes/60 minutes) at 10 micromolar: 60 minutes” value (“CAF … at 10 micromolar: 60 minutes” below) is recorded as 0%/ 0%.
Consider `C=CC(=O)N1CCN(c2nc(OC[C@@H]3CCCN3C3CC(=O)C3)nc3c2CN(C2CCc4ccccc42)C3)C[C@@H]1CC#N` (stereo partly shown) [1-208], for which the “CAF … at 10 micromolar: 10 minutes” value turned out to be 0% and the “CAF … at 10 micromolar: 60 minutes” value was 18%.
In the case of `C=CC(=O)N1CCN(c2nc(OC[C@@H]3CCCN3C)nc3c2CN(C(=O)c2cccc(C(F)F)c2)C3)[C@@H](C)C1` [1-24], the “CAF … at 10 micromolar: 10 minutes” value amounted to 0%/ 0% and the “CAF … at 10 micromolar: 60 minutes” value came to 0%/ 0%.
On to `C=CC(=O)N1CCN(c2nc(OC[C@@H]3CCCN3C)nc3c2CN(Cc2cc(Cl)ccc2Cl)C3)C[C@@H]1CC#N` [1-28], for which the “CAF … at 10 micromolar: 10 minutes” value is on record as 94% and the “CAF … at 10 micromolar: 60 minutes” value is 98%.
For the compound `C=CC(=O)N1CCN(c2nc(O)nc3c2CN(C2CCc4ccccc42)C3)C[C@@H]1CC#N` (stereo partly shown) [1-135], the “CAF … at 10 micromolar: 10 minutes” value is listed as 0% and the “CAF … at 10 micromolar: 60 minutes” value was 7%.
Regarding `C=CC(=O)N1CCN(c2nc(OC[C@@H]3CCCN3C)nc3c2CN(C2CCc4ccccc42)C3)C[C@@H]1CCC#N` (stereo partly shown) [1-212], the “CAF … at 10 micromolar: 10 minutes” value is 0% and the “CAF … at 10 micromolar: 60 minutes” value turned out to be 5%.
Turning to `C=CC(=O)N1CCN(c2nc(OC[C@@H]3CCCN3C)nc3c2CN(Cc2ncccc2Cl)C3)C[C@@H]1CC#N` [1-113], the “CAF … at 10 micromolar: 10 minutes” value stood at 59% and the “CAF … at 10 micromolar: 60 minutes” value is listed as 89%.
In the same order, the values of `C=CC(=O)N1CCN(c2nc(OC[C@@H]3CCCN3C)nc3c2CN(Cc2c(Cl)c(F)cc4[nH]ncc24)C3)C[C@@H]1CC#N` [1-183] are 63% and 93%.
On to `C=C(F)C(=O)N1CCN(c2nc(OC[C@@H]3CCCN3C)nc3c2CN(Cc2ccccc2C(F)(F)F)C3)C[C@@H]1CC#N` [1-221], for which the “CAF … at 10 micromolar: 10 minutes” value is 62% and the “CAF … at 10 micromolar: 60 minutes” value is 92%.
As to `C=C(F)C(=O)N1CCN(c2nc(OC[C@@H]3CCCN3C)nc3c2CN(C2CCc4ccc(Cl)c(Cl)c42)C3)C[C@@H]1CC#N` (stereo partly shown) [1-337], the “CAF … at 10 micromolar: 10 minutes” value is reported as 27% and the “CAF … at 10 micromolar: 60 minutes” value is 74%.
As for `C=CC(=O)N1CCN(c2nc(OC[C@@H]3CCCN3C)nc3c2CN(Cc2cc(O)ccc2Cl)C3)C2COCC21` (stereo partly shown) [1-315], the “CAF … at 10 micromolar: 10 minutes” value was found to be 41% and the “CAF … at 10 micromolar: 60 minutes” value is 66%.
For the compound `C=CC(=O)N1CCN(c2nc(OC[C@@H]3CCCN3C)nc3c2CN(Cc2c(Cl)ccc(O)c2C)C3)C[C@@H]1CC#N` [1-312], the “CAF … at 10 micromolar: 10 minutes” value was determined as 95%/ 95% and the “CAF … at 10 micromolar: 60 minutes” value was 95%/ 95%.
As to `C=CC(=O)N1CCN(c2nc(O[C@@H]3CN(C)C[C@H]3OC)nc3c2CN(C2CCc4ccccc42)C3)C[C@@H]1CC#N` (stereo partly shown) [1-170], the “CAF … at 10 micromolar: 10 minutes” value was determined as 31% and the “CAF … at 10 micromolar: 60 minutes” value was found to be 53%.
Consider `C=C(F)C(=O)N1CCN(c2nc(OC[C@@H]3CCCN3C)nc3c2CN(Cc2cc(N)ncc2Cl)C3)C[C@@H]1CC#N` [1-332], for which the “CAF … at 10 micromolar: 10 minutes” value was found to be 6% and the “CAF … at 10 micromolar: 60 minutes” value came to 48%.
Turning to `C=CC(=O)N1CCN(c2nc(OC[C@@H]3CCCN3C)nc3c2CN(C2CCc4ccccc42)C3)[C@H](C#N)C1` (stereo partly shown) [1-156], the “CAF … at 10 micromolar: 10 minutes” value is 11% and the “CAF … at 10 micromolar: 60 minutes” value stood at 29%.
As for `C=CC(=O)N1CCN(c2nc(OC[C@@H]3CCCN3C)nc3c2CN(C(=O)c2cc(O)ccc2C)C3)[C@@H](C)C1` [1-23, 1-((S)-4-(6-(5-hydroxy-2-methylbenzoyl)-2-(((S)-1-methylpyrrolidin-2-yl)methoxy)-6,7-dihydro-5H-pyrrolo[3,4-d]pyrimidin-4-yl)-3-methylpiperazin-1-yl)prop-2-en-1-one], the “CAF … at 10 micromolar: 10 minutes” value is 9% and the “CAF … at 10 micromolar: 60 minutes” value worked out at 35%.
In the same order, the values of `C=C(F)C(=O)N1CCN(c2nc(OC[C@@H]3CCCN3C)nc3c2CN(Cc2c(Cl)ccc4nc[nH]c24)C3)C[C@@H]1CC#N` [1-320] are 76% and 91%.
Take `C=CC(=O)N1CCN(c2nc(OC[C@@H]3CCCN3C)nc3c2CN(Cc2cc(O)ccc2C)C3)C[C@@H]1CC#N` [1-40]: the “CAF … at 10 micromolar: 10 minutes” value turned out to be 98%/ 98% and the “CAF … at 10 micromolar: 60 minutes” value is given as 98%/ 98%.
In the case of `C=CC(=O)N1CCN(c2nc(Oc3cnc(N)nc3C3CC3)nc3c2CN(C2CCc4ccccc42)C3)C[C@@H]1CC#N` (stereo partly shown) [1-207], the “CAF … at 10 micromolar: 10 minutes” value amounted to 16% and the “CAF … at 10 micromolar: 60 minutes” value came out at 50%.
In the same order, the values of `C=CC(=O)N1CCN(c2nc(OC[C@@H]3CCCN3C)nc3c2CN(Cc2cc(OC(F)F)ccc2Cl)C3)C[C@@H]1CC#N` [1-53] are 40% and 86%.
In the same order, the values of `C=CC(=O)N1CCN(c2nc(OC[C@@H]3CCCN3CC(F)(F)F)nc3c2CN(C2CCc4ccccc42)C3)C[C@@H]1CC#N` (stereo partly shown) [1-141] are 51% and 71%.
`C=CC(=O)N1[C@H](C)CN(c2nc(OC[C@@H]3CCCN3C)nc3c2CN(Cc2c(Cl)ccc(O)c2C)C3)C[C@H]1C` [1-341]: the “CAF … at 10 micromolar: 10 minutes” value is reported as 0%/ 0% and the “CAF … at 10 micromolar: 60 minutes” value is recorded as 0%/ 0%.
As to `C=CC(=O)N1CCN(c2nc(OC[C@@H]3CCCN3C)nc3c2CN(Cc2cccc4ccccc24)C3)C[C@@H]1CC#N` [1-164], the “CAF … at 10 micromolar: 10 minutes” value is given as 93% and the “CAF … at 10 micromolar: 60 minutes” value worked out at 95%.
Regarding `C=C(F)C(=O)N1CCN(c2nc(OC[C@@H]3CCCN3C)nc3c2CN(Cc2n[nH]c4ccccc24)C3)C[C@@H]1CC#N` [1-345], the “CAF … at 10 micromolar: 10 minutes” value came out at 0%/ 0% and the “CAF … at 10 micromolar: 60 minutes” value came out at 0%/ 0%.
Take `C=CC(=O)N1C2CC(=O)CC1CN(c1nc(OC[C@@H]3CCCN3C)nc3c1CN(C1CCc4ccccc41)C3)C2` (stereo partly shown) [1-233]: the “CAF … at 10 micromolar: 10 minutes” value came to 0% and the “CAF … at 10 micromolar: 60 minutes” value was 5%.
Regarding `C=CC(=O)N1CCN(c2nc(Oc3cccc4c3CN(C)C4)nc3c2CN(C2CCc4ccccc42)C3)C[C@@H]1CC#N` (stereo partly shown) [1-174], the “CAF … at 10 micromolar: 10 minutes” value was 9% and the “CAF … at 10 micromolar: 60 minutes” value is 28%.
For `C=CC(=O)N1CCN(c2nc(OC[C@@H]3CCCN3C)nc3c2CN(c2cccc4ccccc24)C3)C[C@@H]1CC#N` [1-9, 2-[(2S)-4-(2-{[(2S)-1-methylpyrrolidin-2-yl]methoxy}-6-(naphthalen-1-yl)-5H,7H-pyrrolo[3,4-d]pyrimidin-4-yl)-1-(prop-2-enoyl)piperazin-2-yl]acetonitrile], the “CAF … at 10 micromolar: 10 minutes” value is listed as 35% and the “CAF … at 10 micromolar: 60 minutes” value was 85%.
As for `C=CC(=O)N1CCN(c2nc(OC[C@@H]3CCCN3C)nc3c2CN(C2CCc4ccccc42)C3)C[C@@H]1Cn1ccnn1` (stereo partly shown) [1-214], the “CAF … at 10 micromolar: 10 minutes” value is listed as 0% and the “CAF … at 10 micromolar: 60 minutes” value is given as 2%.
For `C=CC(=O)N1CCN(c2nc(OCC3CCCC3)nc3c2CN(Cc2c(F)cccc2OC)C3)C[C@@H]1CC#N` [1-66], the “CAF … at 10 micromolar: 10 minutes” value is given as 1% and the “CAF … at 10 micromolar: 60 minutes” value turned out to be 14%.
On to `C=CC(=O)N1CCN(c2nc(OC[C@@H]3CCCN3C)nc3c2CN(Cc2cc(O)ccc2C)C3)[C@@H](C)C1` [1-1, 1-[(3S)-4-{6-[(5-hydroxy-2-methylphenyl)methyl]-2-{[(2S)-1-methylpyrrolidin-2-yl]methoxy}-5H,7H-pyrrolo[3,4-d]pyrimidin-4-yl}-3-methylpiperazin-1-yl]prop-2-en-1-one], for which the “CAF … at 10 micromolar: 10 minutes” value is given as 69% and the “CAF … at 10 micromolar: 60 minutes” value stood at 93%.
Regarding `C=CC(=O)N1CCN(c2nc(OC[C@@H]3CCCN3C)nc3c2CN(Cc2c(F)cccc2Cl)C3)C[C@@H]1CC#N` [1-112], the “CAF … at 10 micromolar: 10 minutes” value is given as 98% and the “CAF … at 10 micromolar: 60 minutes” value turned out to be 99%.
On to `C=CC(=O)N1CCN(c2nc(OC[C@@H]3CCCN3C)nc3c2CN(Cc2cc(OC)ccc2F)C3)C[C@@H]1CC#N` [1-39], for which the “CAF … at 10 micromolar: 10 minutes” value was determined as 51% and the “CAF … at 10 micromolar: 60 minutes” value was determined as 72%.

(Values after patent publication US20210292330A1, “PYRROLIDINE-FUSED HETEROCYCLES” (Erasca, Inc., priority 2020, published 2021).)
